Measurements reported in patent US20230085307A1, “PYRIDAZINONE COMPOUND AND HERBICIDE” (NISSAN CHEMICAL CORPORATION, priority 2019, published 2023).

Tests used:
lambsquarters [1] = experiment: Test Example 4: herbicidal effect by soil treatment (Table 19, symbol O); type: in vivo, lambsquarters (Chenopodium album); details: amount of applied herbicide 320 g/ha
Method in brief: (§1)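 Applied as a water-diluted emulsion, the compound was sprayed onto soil covering newly sown seeds. Evaluation came three weeks after application, in a greenhouse held at 25° C. to 30° C.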

Chinese sprangletop = experiment: Test Example 3: herbicidal effect by foliage application, Wagner pot (Table 18, symbol D); type: in vivo, chinese sprangletop (Leptochloa chinensis); details: for herbicidal effect on Chinese sprangletop (D): 320 g/ha
Method in brief: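 Plants were sown in alluvial soil held under 0.1–0.5 cm standing water and grown 14 days in a greenhouse at 25–30 °C. An emulsifiable formulation, water-diluted to the set dose, was then sprayed onto the foliage, and effects were scored three weeks later using previously defined criteria.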

Japanese bulrush = experiment: Test Example 2: herbicidal activity, application during weed generation under submerged conditions (Table 17, symbol B); type: in vivo, Japanese bulrush (Schoenoplectus juncoides); details: for herbicidal effect rating, B: Japanese bulrush: AAH 320 g/ha, application during weed generation, submerged conditions
Method in brief: (§2)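 Herbicide emulsion, diluted with water to the chosen amount, is applied onto 4 cm floodwater over alluvial soil where the weeds were co-sown and raised at 25–30° C. Application timing: 1–2 leaves. Assessment: three weeks afterwards.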

chickweed [2] = experiment: Test Example 5: herbicidal effect by foliage application, plastic box (Table 20, symbol P); type: in vivo, common chickweed (Stellaria media)
Method in brief: (§3)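 Sow seeds spot-wise in sterilized diluvial soil; cover with ~1.5 cm soil. Grow 14 days in greenhouse, 25° C. to 30° C. Spray foliage with emulsion diluted to predetermined amount. Rate effect after 3 weeks.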

chickweed [3] = experiment: Test Example 4: herbicidal effect by soil treatment (Table 19, symbol P); type: in vivo, common chickweed (Stellaria media); details: amount of applied herbicide 320 g/ha
Method in brief: as §1

lambsquarters [4] = experiment: Test Example 5: herbicidal effect by foliage application, plastic box (Table 20, symbol O); type: in vivo, lambsquarters (Chenopodium album)
Method in brief: as §3

late watergrass = experiment: Test Example 2: herbicidal activity, application during weed generation under submerged conditions (Table 17, symbol A); type: in vivo, late watergrass (Echinochloa oryzicola); details: for herbicidal effect rating, A: late watergrass: AAH 320 g/ha, application during weed generation, submerged conditions
Method in brief: as §2

redroot pigweed = experiment: Test Example 4: herbicidal effect by soil treatment (Table 19, symbol N); type: in vivo, redroot pigweed (Amaranthus retroflexus); details: amount of applied herbicide 320 g/ha
Method in brief: as §1

oval-leafed pondweed [5] = experiment: Test Example 2: herbicidal activity, application during weed generation under submerged conditions (Table 17, symbol C); type: in vivo, oval-leafed pondweed (Monochoria vaginalis); details: for herbicidal effect rating, C: oval-leafed pondweed: AAH 320 g/ha, application during weed generation, submerged conditions
Method in brief: as §2

barnyard grass = experiment: Test Example 4: herbicidal effect by soil treatment (Table 19, symbol H); type: in vivo, barnyard grass (Echinochloa crus-galli); details: amount of applied herbicide 320 g/ha
Method in brief: as §1

Italian ryegrass = experiment: Test Example 5: herbicidal effect by foliage application, plastic box (Table 20, symbol K); type: in vivo, Italian ryegrass (Lolium multiflorum)
Method in brief: as §3

oval-leafed pondweed [6] = experiment: Test Example 1: herbicidal activity, application before weed generation under submerged conditions (Table 16, symbol C); type: in vivo, oval-leafed pondweed (Monochoria vaginalis); details: amount of applied herbicide 320 g/ha
Method in brief: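 Alluvial soil was flooded to 4 cm depth, weed seeds were sown mixed and 2.5-leaf rice seedlings were transplanted. On sowing day, the compound's emulsion, diluted in water to a set dose, was applied to the water surface. Plants grew at 25–30 °C and were scored 0–5 after three weeks.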

wild oat = experiment: Test Example 4: herbicidal effect by soil treatment (Table 19, symbol I); type: in vivo, wild oat (Avena fatua); details: amount of applied herbicide 320 g/ha
Method in brief: as §1

persian speedwell = experiment: Test Example 5: herbicidal effect by foliage application, plastic box (Table 20, symbol R); type: in vivo, Persian speedwell (Veronica persica)
Method in brief: as §3

blackgrass = experiment: Test Example 4: herbicidal effect by soil treatment (Table 19, symbol J); type: in vivo, blackgrass (Alopecurus myosuroides); details: amount of applied herbicide 320 g/ha
Method in brief: as §1

[7] = 320 g/ha, foliage application after 14-day growth, evaluated three weeks after application
[8] = amount of applied herbicide 320 g/ha, foliage application after 14-day growth, evaluated three weeks after application
[9] = application during weed generation under submerged conditions, amount of applied herbicide 320 g/ha
[10] = foliage application, 320 g/ha, evaluated 3 weeks after application

SMILES	Herbicidal effect by soil treatment, O: lambsquarters (lambsquarters [1])	herbicidal effect on Chinese sprangletop (D) (Chinese sprangletop)	herbicidal effect rating, B: Japanese bulrush (Japanese bulrush)	herbicidal effect on P: chickweed (evaluation grade 0-5) (chickweed [2]; [7])	Herbicidal effect by soil treatment, P: chickweed (chickweed [3])	herbicidal effect on O: lambsquarters (evaluation grade 0-5) (lambsquarters [4]; [7])	herbicidal effect rating, A: late watergrass (late watergrass)	Herbicidal effect by soil treatment, N: redroot pigweed (redroot pigweed)	herbicidal effect rating, C: oval-leafed pondweed (oval-leafed pondweed [5])	Herbicidal effect by soil treatment, H: barnyard grass (barnyard grass)	herbicidal effect on K: Italian ryegrass (evaluation grade 0-5) (Italian ryegrass; [7])	Herbicidal effect, C: oval-leafed pondweed (oval-leafed pondweed [6])	Herbicidal effect by soil treatment, I: wild oat (wild oat)	herbicidal effect on R: persian speedwell (evaluation grade 0-5) (persian speedwell; [7])	Herbicidal effect by soil treatment, J: blackgrass (blackgrass)	O: lambsquarters, herbicidal effect grade (lambsquarters [1])	P: chickweed, herbicidal effect grade (chickweed [3])	N: redroot pigweed, herbicidal effect grade (redroot pigweed)	H: barnyard grass, herbicidal effect grade (barnyard grass)	I: wild oat, herbicidal effect grade (wild oat)	further results
CCCC(=O)Oc1c(C)nn(C)c(=O)c1-c1c(-c2ccc(F)cc2OCC)sc2c(Cl)cccc12 [4-036]	1 (Herbicidal rate of 5% or more and less than 20%)	5 (Herbicidal rate of 90% or more (almost completely withered))	0 (Herbicidal rate of 5% or less (almost no effect))	5 (Herbicidal rate of 90% or more (almost completely withered))	2 (Herbicidal rate of 20% or more and less than 40%)	2 (Herbicidal rate of 20% or more and less than 40%)	3 (Herbicidal rate of 40% or more and less than 70%)	4 (Herbicidal rate of 70% or more and less than 90%)	0 (Herbicidal rate of 5% or less (almost no effect))	3 (Herbicidal rate of 40% or more and less than 70%)	4 (Herbicidal rate of 70% or more and less than 90%)	4 (Herbicidal rate of 70% or more and less than 90%)	0 (Herbicidal rate of 5% or less (almost no effect))	4 (Herbicidal rate of 70% or more and less than 90%)	0 (Herbicidal rate of 5% or less (almost no effect))	–	–	–	–	–	–
CCCC(=O)Oc1c(C)nn(C)c(=O)c1-c1c(-c2ccc(C(F)(F)F)cc2)sc2c(F)cccc12 [4-045]	0 (Herbicidal rate of 5% or less (almost no effect))	3 (Herbicidal rate of 40% or more and less than 70%)	0 (Herbicidal rate of 5% or less (almost no effect))	5 (Herbicidal rate of 90% or more (almost completely withered))	3 (Herbicidal rate of 40% or more and less than 70%)	3 (Herbicidal rate of 40% or more and less than 70%)	3 (Herbicidal rate of 40% or more and less than 70%)	4 (Herbicidal rate of 70% or more and less than 90%)	0 (Herbicidal rate of 5% or less (almost no effect))	0 (Herbicidal rate of 5% or less (almost no effect))	5 (Herbicidal rate of 90% or more (almost completely withered))	0 (Herbicidal rate of 5% or less (almost no effect))	0 (Herbicidal rate of 5% or less (almost no effect))	5 (Herbicidal rate of 90% or more (almost completely withered))	0 (Herbicidal rate of 5% or less (almost no effect))	–	–	–	–	–	–
CCCC(=O)Oc1c(C)nn(C)c(=O)c1-c1c(-c2ccc(C#N)cc2)sc2cc(F)c(F)cc12 [5-026]	–	4 (Herbicidal rate of 70% or more and less than 90%)	0 (Herbicidal rate of 5% or less (almost no effect))	–	–	–	2 (Herbicidal rate of 20% or more and less than 40%)	–	0 (Herbicidal rate of 5% or less (almost no effect))	–	–	0 (Herbicidal rate of 5% or less (almost no effect))	–	–	–	4 (Herbicidal rate of 70% or more and less than 90%)	0 (Herbicidal rate of 5% or less (almost no effect))	4 (Herbicidal rate of 70% or more and less than 90%)	0 (Herbicidal rate of 5% or less (almost no effect))	0 (Herbicidal rate of 5% or less (almost no effect))	Herbicidal effect by foliage application, P: chickweed (chickweed [2]; [8]): 5 (Herbicidal rate of 90% or more (almost completely withered)); Herbicidal effect by foliage application, O: lambsquarters (lambsquarters [4]; [8]): 4 (Herbicidal rate of 70% or more and less than 90%); Herbicidal effect by foliage application, K: Italian ryegrass (Italian ryegrass; [8]): 0 (Herbicidal rate of 5% or less (almost no effect)); Herbicidal effect by foliage application, R: persian speedwell (persian speedwell; [8]): 4 (Herbicidal rate of 70% or more and less than 90%); J: blackgrass, herbicidal effect grade (blackgrass): 0 (Herbicidal rate of 5% or less (almost no effect))
Cc1ccc2oc(-c3ccc(OCC(C)C)cc3)c(-c3c(O)c(C)nn(C)c3=O)c2c1 [9-051]	–	–	–	–	–	–	–	–	–	–	–	5 (Herbicidal rate of 90% or more (almost completely withered))	–	–	–	5 (Herbicidal rate of 90% or more (almost completely withered))	5 (Herbicidal rate of 90% or more (almost completely withered))	5 (Herbicidal rate of 90% or more (almost completely withered))	4 (Herbicidal rate of 70% or more and less than 90%)	0 (Herbicidal rate of 5% or less (almost no effect))	Herbicidal effect on D (Chinese sprangletop), foliage application (Chinese sprangletop; amount of applied herbicide 320 g/ha): 3 (Herbicidal rate of 40% or more and less than 70%); herbicidal effect grade, B: Japanese bulrush (Japanese bulrush; [9]): 4 (Herbicidal rate of 70% or more and less than 90%); P (chickweed) herbicidal effect grade (chickweed [2]; [10]): 5 (Herbicidal rate of 90% or more (almost completely withered)); O (lambsquarters) herbicidal effect grade (lambsquarters [4]; [10]): 5 (Herbicidal rate of 90% or more (almost completely withered)); herbicidal effect grade, A: late watergrass (late watergrass; [9]): 5 (Herbicidal rate of 90% or more (almost completely withered)); herbicidal effect grade, C: oval-leafed pondweed (oval-leafed pondweed [5]; [9]): 5 (Herbicidal rate of 90% or more (almost completely withered)); K (Italian ryegrass) herbicidal effect grade (Italian ryegrass; [10]): 5 (Herbicidal rate of 90% or more (almost completely withered)); R (persian speedwell) herbicidal effect grade (persian speedwell; [10]): 5 (Herbicidal rate of 90% or more (almost completely withered)); J: blackgrass, herbicidal effect grade (blackgrass): 5 (Herbicidal rate of 90% or more (almost completely withered))
